Laboratory results from patent US20220135564A1, “DEUTERATED MITRAGYNINE ANALOGS AS SAFER OPIOID MODULATORS IN THE MITRAGYNINE CLASS” (The Trustees of Columbia University in the City of New York, priority 2019, published 2022).

What was measured:
[1] = Simulated gastric fluid (SGF) incubations monitored by NMR; assay type: physicochemical; details: deuterated SGF, 1.3 mg/mL, room temperature
Procedure: SGF Incubations. Deuterated SGF (to permit direct NMR monitoring of the reactions) was prepared by combining NaCl (10 mg) and 37% DCl in D2O (35 μL) and diluting up to a final volume of 5.0 mL with D2O. Solutions of 7-OH and 3-d-7-OH in deuterated SGF were prepared at a concentration of 1.3 mg/mL containing N-methyl-2-pyrrolidone (NMP) as an internal standard (IS) at a concentration of 3.33 μL/mL and the reaction mixtures were left to stand at room temperature. NMR spectra were recorded on a Bruker 500 MHz instrument at the following time points: 35, 65, 125, 245, 365, and 1440 minutes (relative to time of solution mixing). Chemical shifts were referenced to the D2O residual solvent peak at 4.79 ppm. Decomposition of parent compounds was quantified by the peak area ratio of a doublet at 6.63 ppm (corresponding to 7-OH and 3-d-7-OH) and a singlet at 2.84 ppm (corresponding to IS). These ratios, calculated at each time point, were normalized to the ratio determined at 35 minutes to obtain values as percent remaining (100% at 35 minutes). Concentration of DHM was determined at each time point by comparing the peak areas of a doublet at 6.70 ppm (corresponding to DHM) and a singlet at 2.84 ppm (corresponding to IS) and using the known concentration of internal standard (3.33 μL/mL=34.5 mM). The concentration of DHM formed from 3-d-7-OH was below the lower limit of quantitation of -0.1 mM at the 35-, 65-, and 125-minute time points.

[2] = Stability and metabolite formation in dog plasma; assay type: in vitro ADME; details: 1 μM, 37° C., over 120 minutes
Procedure: Stability and Metabolite Formation in Dog Plasma. Beagle dog plasma with Na citrate (Innovatine Research, Inc., lot #IBG-NaCitrate-28323) was used in this study. Plasma incubations were carried out in 5 aliquots of 70 μL each (one for each time point), in duplicate. Test compounds (1 μM, final DMSO concentration 1%) were incubated at 37° C. with shaking at 100 rpm. Five time points over 120 minutes were analyzed. The reactions were stopped by adding 400 μL of acetonitrile-methanol mixture (1:1) with subsequent plasma protein sedimentation by centrifugation at 5500 rpm for 5 minutes.

Male Sprague-Dawley rats = test: Rat tail-flick assay (analgesic activity); assay type: in vivo; details: oral gavage, 50° C. hot-water bath, 30 minutes after administration
Procedure: Animals. Male Sprague-Dawley rats, aged 7-8 weeks, were used in experiments. Animals were housed under controlled temperatures and 12-hour light/dark cycles (lights on at 06:00-18:00 h), with ad libitum food and water. The study was approved by the Institutional Animal Care and Use Committee (IACUC) at WuXi AppTec (Shanghai). WuXi's animal facilities and IACUC are fully accredited by the Association for Assessment and Accreditation of Laboratory Animal Care International (AAALAC). All efforts were made to minimize animal suffering.
Drugs and Drug Administration. Drugs were prepared as described above and administered by oral gavage at a volume of 5 mL/kg in de-ionized water acidified with acetic acid.
Tail-Flick. Analgesic activity was assessed in the tail-flick assay 30 minutes (peak effect) after administration of vehicle and each dose of drug (n=8 per treatment). Animals were tested for their latency to withdraw their tails from a hot water bath maintained at 50° C. with a room temperature of 22° C. A cutoff time of 7 seconds was used to prevent tissue damage. Data were analyzed as percent maximal effect, % MPE, which was calculated according to the formula: % MPE=[(observed latency−vehicle latency)/(maximal latency−vehicle latency)]×100. Dose-response curves were fit by nonlinear regression (GraphPad Prism, La Jolla, Calif.).

[3] = Mouse brain homogenate (MBH) stability and metabolite formation; assay type: in vitro ADME; details: 2 μM, 37° C., over 120 minutes
Procedure: MBH Preparation. Male BALB/c mice (12-14 weeks old) were housed in polypropylene cages with free access to standard commercial food pellets and tap water. Animals were sacrificed by cervical dislocation immediately prior to brain homogenate preparation. Brains from 10 mice were fragmented into small pieces and homogenized in ice-cold artificial cerebrospinal fluid solution (ACSF: 126 mM NaCl, 2.68 mM KCl, 1 mM Na2HPO4, 0.88 mM MgSO4, 22 mM NaHCO3, 1.45 mM CaCl2, 10 mM HEPES, 11 mM D-glucose, pH 7.4) using a TH-01 OMNI homogenizer. Samples were centrifuged at 1500×g for 10 minutes. Supernatants were decanted and collected. Total protein concentration was determined by Bradford assay and equaled 17.7 mg/mL. The obtained brain homogenate was flash-frozen in liquid nitrogen. Aliquots were stored at −70° C. until use.
MBH Stability and Metabolite Formation. […] The incubation medium consisted of artificial cerebrospinal fluid solution (ACSF: 126 mM NaCl, 2.68 mM KCl, 1 mM Na2HPO4, 0.88 mM MgSO4, 22 mM NaHCO3, 1.45 mM CaCl2, 10 mM HEPES, 11 mM D-glucose, pH 7.4) with 2 mg of brain protein per mL. Test compounds (2 μM, final solvent concentration 1%) were incubated with brain homogenate at 37° C., shaking at 100 rpm. Incubations were performed in duplicate. Six time points over 120 minutes were analyzed.

[4] = 35-1440 minutes, compared to 7-OH

Row | SMILES | decomposition of parent compound in SGF [1, 4] | formation of toxic metabolite DHM in SGF [1, 4] | concentration of DHM formed in SGF ([1]; 35-, 65-, and 125-minute time points, below lower limit of quantitation) [µM] | decomposition of parent compound in dog plasma [2] | formation of DHM in dog plasma ([2]; compared to 7-OH) | analgesic effect in the tail-flick assay (Male Sprague-Dawley rats) | decomposition of parent compound in MBH [3]
1 | [2H][C@@]12C[C@H](/C(=C\OC)C(=O)OC)[C@H](CC)CN1CC[C@@]1(O)C2=Nc2cccc(OC)c21 [3-d-7-OH, 3-Deutero-7-hydroxymitragynine] | did not slow decomposition | greatly attenuated | < -100 | attenuated the decomposition | attenuated formation of DHM | – | –
2 | CC[C@@H]1CN2CC[C@@]3(O)C(=Nc4cccc(OC)c43)[C@@H]2C[C@@H]1/C(=C\OC)C(=O)OC [7-OH, 7-Hydroxymitragynine, reference compound] | – | – | – | unstable | – | – | –
3 | CC[C@@H]1CN2CCc3c([nH]c4cccc(OC)c34)[C@@H]2C[C@@H]1/C(=C\OC)C(=O)OC [Mitragynine] | – | – | – | – | – | dose-dependent analgesic effects | unstable
